Measured values: paper PMC11596392, “Enhanced Antibacterial, Anti-Inflammatory, and Antibiofilm Activities of Tryptophan-Substituted Peptides Derived from Cecropin A-Melittin Hybrid Peptide BP100” (Molecules, 2024)
Converted amounts (≈) assume the structure as drawn. Like-named read-outs stand apart in the source and are kept apart here. Where no end group is shown, it is not given here.

Assays:
S. aureus (KCTC 1621) = format: cell-based, Staphylococcus aureus
Protocol: To comprehensively evaluate the therapeutic potential of BP100 and the five selected analogs, we assessed their capacity to maintain antibacterial activity in the presence of physiological salts and serum (Table 4). Antibacterial assays were conducted in an environment supplemented with either […] fresh human serum or physiological salts. […] This enhanced stability in physiologically relevant conditions may have important implications for the potential therapeutic applications of these peptide analogs.
The minimal inhibitory concentrations (MICs) of the peptides against bacterial strains were determined using a modified broth-microdilution method in accordance with the National Committee for Clinical Laboratory Standards (NCCLS) guidelines. Overnight cultures were diluted in cation-adjusted Mueller–Hinton Broth (MHB) to achieve an inoculum density of 2 × 10^6 CFU/mL. A two-fold serial dilution of the peptide solution (100 μL) was introduced into microtiter plates, followed by the addition of 100 μL of bacterial suspension. The plates were then incubated at 37 °C for 24 h to determine the MICs. Wells containing only culture media served as negative controls, while those with added bacteria functioned as positive controls. The MIC, expressed in μM, was defined as the lowest peptide concentration that prevented visible bacterial growth. This protocol was also employed to determine MICs in the presence of physiological salts (150 mM of NaCl, 4.5 mM of KCl, 6 μM of NH4Cl, 1 mM of MgCl2, 2.5 mM of CaCl2, and 4 μM of FeCl3) and 20% human serum to assess the peptides’ efficacy under conditions more closely resembling physiological environments. All experiments were conducted in triplicate and repeated three times independently to ensure reproducibility and statistical significance of the results.

MDRPA (CCARM 2095) = format: cell-based, multidrug-resistant Pseudomonas aeruginosa; conditions: for MICA: MIC of peptide alone: checkerboard, 37 °C, 24 h; for FICI: fractional inhibitory concentration index: peptide with ciprofloxacin, [A]/MICA + [B]/MICB
From the text: Multidrug-resistant pathogens pose a significant challenge to both human and animal health. The steady decline in the discovery of new antibiotics has exacerbated the difficulty in developing effective therapies for infection control. Consequently, there is an urgent need for alternative strategies that can combat pathogens without inducing drug resistance. One such strategy involves the combination of different antimicrobial agents. The effects of antimicrobial peptides (AMPs) combined with conventional antibiotics often surpass those of individual drugs. […] The primary advantage of synergistic combinations lies in their ability to lower the concentration of each antimicrobial agent required for effective antibacterial activity. This approach offers several benefits, including reduced production costs, a decreased risk of adverse side effects, diminished toxicity to mammalian cells, and a lower likelihood of drug resistance development. In light of these potential advantages, we investigated the synergistic effects of BP100 and the five selected analogs in combination with ciprofloxacin against multidrug-resistant Pseudomonas aeruginosa (MDRPA) using a checkerboard synergy assay. Ciprofloxacin, an antibiotic belonging to the fluoroquinolone class, is commonly used to treat various bacterial infections, including urinary tract infections and pneumonia. It exerts a bactericidal effect by inhibiting bacterial DNA gyrase, thereby disrupting DNA replication and transcription […]. The fractional inhibitory concentration index (FICI) results for BP100 and its selected analogs, when paired with ciprofloxacin against MDRPA, are detailed in Table 5. […] Such combinations may offer a valuable approach to enhancing the efficacy of existing antibiotics and potentially mitigating the development of antimicrobial resistance.
The synergistic effects of peptide-antibiotic combinations against methicillin-resistant Staphylococcus aureus (MRSA; CCARM 3089) and multidrug-resistant Pseudomonas aeruginosa (MDRPA; CCARM 2095) were evaluated using the fractional inhibitory concentration index (FICI) method. Antibiotics and peptides were subjected to two-fold serial dilutions, mixed in equal ratios, and combined with a bacterial suspension adjusted to approximately 10^6 CFU/mL. The resulting mixtures were distributed into microplate wells and incubated at 37 °C with orbital shaking at 200 rpm for 24 h. Bacterial growth was monitored by measuring the optical density at 600 nm (OD600). The FICI was calculated using the broth microdilution checkerboard method, defined as the sum of the ratios of the minimum inhibitory concentrations (MICs) of each agent in combination to their individual MICs, according to the following equation: FICI = (MIC of antibiotic in combination/MIC of antibiotic alone) + (MIC of peptide in combination/MIC of peptide alone). The interpretation of FICI values was as follows: FICI ≤ 0.5 indicates synergy; 0.5 < FICI ≤ 1.0 indicates an additive effect; 1.0 < FICI ≤ 4.0 indicates indifference; and FICI > 4.0 indicates antagonism.

| Molecule | MIC (S. aureus (KCTC 1621); 4 μM of FeCl3) | MIC (S. aureus (KCTC 1621); 6 μM of NH4Cl) | MIC (S. aureus (KCTC 1621); 1 mM of MgCl2) | MIC (S. aureus (KCTC 1621); 2.5 mM of CaCl2) | MIC (S. aureus (KCTC 1621); 4.5 mM of KCl) | MIC (S. aureus (KCTC 1621); 150 mM of NaCl) | MIC (S. aureus (KCTC 1621); Control, absence of salts) | MICA: MIC of peptide alone (MDRPA (CCARM 2095)) | FICI: fractional inhibitory concentration index (MDRPA (CCARM 2095)) |
| --- | --- | --- | --- | --- | --- | --- | --- | --- | --- |
| CC[C@H](C)[C@H](NC(=O)[C@H](CCCCN)NC(=O)[C@H](CCCCN)NC(=O)[C@H](Cc1ccccc1)NC(=O)[C@H](CC(C)C)NC(=O)[C@H](CCCCN)NC(=O)[C@@H](N)CCCCN)C(=O)N[C@@H](CC(C)C)C(=O)N[C@@H](CCCCN)C(=O)N[C@@H](Cc1ccc(O)cc1)C(=O)N[C@@H](CC(C)C)C(N)=O [BP100] | 16 µM (≈ 22.7 µg/mL) | 16 µM (≈ 22.7 µg/mL) | 16 µM (≈ 22.7 µg/mL) | 16 µM (≈ 22.7 µg/mL) | 16 µM (≈ 22.7 µg/mL) | 16 µM (≈ 22.7 µg/mL) | 4 µM | 32 µg/mL | 0.375 |
| KKWFKKWLKWL-NH2 [BP13] | 8 µM | 8 µM | 8 µM | 8 µM | 8 µM | 8 µM | 4 µM | 8 µg/mL | 0.2656 |
| KKWFKKILKWL-NH2 [BP6] | 8 µM | 4 µM | 4 µM | 4 µM | 4 µM | 4 µM | 2 µM | 8 µg/mL | 0.375 |
| KKWWKKILKYL-NH2 [BP5] | 4 µM | 4 µM | 4 µM | 4 µM | 4 µM | 4 µM | 2 µM | 8 µg/mL | 0.3125 |
| KKLFKKIWKWL-NH2 [BP11] | 4 µM | 4 µM | 4 µM | 16 µM | 4 µM | 8 µM | 4 µM | 8 µg/mL | 0.3125 |
| KKLWKKILKWL-NH2 [BP8] | 4 µM | 4 µM | 4 µM | 4 µM | 4 µM | 4 µM | 4 µM | 8 µg/mL |  |
